Laboratory results from PubChem BioAssay AID1259407 (Chemical Carcinogenesis Research Information System (CCRIS), 2018).
Calls of active or inactive are those of the source. How the calls were made is not given here.

Test system: CCRIS mutagenicity, Ames/micronucleus/aberration tests
Assay: CCRIS mutagenicity studies
[1] = Test System: AMES SALMONELLA TYPHIMURIUM, Strain/Indicator: TA98, Metabolic Activation: RAT, LIVER, S-9, AROCLOR 1254, Method: STANDARD PLATE
[2] = Test System: AMES SALMONELLA TYPHIMURIUM, Strain/Indicator: TA100, Metabolic Activation: RAT, LIVER, S-9, AROCLOR 1254, Method: STANDARD PLATE
[3] = Test System: AMES SALMONELLA TYPHIMURIUM, Strain/Indicator: TA98, Metabolic Activation: NONE, Method: PREINCUBATION
[4] = Test System: AMES SALMONELLA TYPHIMURIUM, Strain/Indicator: TA100, Metabolic Activation: NONE, Method: PREINCUBATION
[5] = Test System: AMES SALMONELLA TYPHIMURIUM, Strain/Indicator: TA100, Metabolic Activation: NONE, Method: STANDARD PLATE

Measured: mutagenic call

O=C(O)C[C@H](NC(=O)COc1ccc(Cl)cc1Cl)C(=O)O
inactive: Test System: AMES SALMONELLA TYPHIMURIUM, Strain/Indicator: TA97, Metabolic Activation: RAT, LIVER, S-9, AROCLOR 1254, Method: STANDARD PLATE inactive; negative | Test System: AMES SALMONELLA TYPHIMURIUM, Strain/Indicator: TA97, Metabolic Activation: WOODCHUCK, LIVER, S-9, 3-METHYLCHOLANTHRENE, Method: STANDARD PLATE inactive; negative | [1] inactive; negative | Test System: AMES SALMONELLA TYPHIMURIUM, Strain/Indicator: TA98, Metabolic Activation: WOODCHUCK, LIVER, S-9, 3-METHYLCHOLANTHRENE, Method: STANDARD PLATE inactive; negative | [2] inactive; negative | Test System: AMES SALMONELLA TYPHIMURIUM, Strain/Indicator: TA100, Metabolic Activation: WOODCHUCK, LIVER, S-9, 3-METHYLCHOLANTHRENE, Method: STANDARD PLATE inactive; negative | Test System: AMES SALMONELLA TYPHIMURIUM, Strain/Indicator: TA1535, Metabolic Activation: RAT, LIVER, S-9, AROCLOR 1254, Method: STANDARD PLATE inactive; negative | Test System: AMES SALMONELLA TYPHIMURIUM, Strain/Indicator: TA1535, Metabolic Activation: WOODCHUCK, LIVER, S-9, 3-METHYLCHOLANTHRENE, Method: STANDARD PLATE inactive; negative | Test System: AMES SALMONELLA TYPHIMURIUM, Strain/Indicator: TA1538, Metabolic Activation: RAT, LIVER, S-9, AROCLOR 1254, Method: STANDARD PLATE inactive; negative | Test System: AMES SALMONELLA TYPHIMURIUM, Strain/Indicator: TA1538, Metabolic Activation: WOODCHUCK, LIVER, S-9, 3-METHYLCHOLANTHRENE, Method: STANDARD PLATE inactive; negative

CCCCCCCCCCCCOS(=O)(=O)O
inactive: Test System: AMES SALMONELLA TYPHIMURIUM, Strain/Indicator: TA98, Metabolic Activation: HAMSTER, LIVER, S-9, AROCLOR 1254 (10%), Method: PREINCUBATION inactive; negative | [3] inactive; negative | Test System: AMES SALMONELLA TYPHIMURIUM, Strain/Indicator: TA98, Metabolic Activation: RAT, LIVER, S-9, AROCLOR 1254 (10%), Method: PREINCUBATION inactive; negative | Test System: AMES SALMONELLA TYPHIMURIUM, Strain/Indicator: TA100, Metabolic Activation: HAMSTER, LIVER, S-9, AROCLOR 1254 (10%), Method: PREINCUBATION inactive; negative | [4] inactive; negative | Test System: AMES SALMONELLA TYPHIMURIUM, Strain/Indicator: TA100, Metabolic Activation: RAT, LIVER, S-9, AROCLOR 1254 (10%), Method: PREINCUBATION inactive; negative | Test System: AMES SALMONELLA TYPHIMURIUM, Strain/Indicator: TA1535, Metabolic Activation: HAMSTER, LIVER, S-9, AROCLOR 1254 (10%), Method: PREINCUBATION inactive; negative | Test System: AMES SALMONELLA TYPHIMURIUM, Strain/Indicator: TA1535, Metabolic Activation: NONE, Method: PREINCUBATION inactive; negative | Test System: AMES SALMONELLA TYPHIMURIUM, Strain/Indicator: TA1535, Metabolic Activation: RAT, LIVER, S-9, AROCLOR 1254 (10%), Method: PREINCUBATION inactive; negative | Test System: AMES SALMONELLA TYPHIMURIUM, Strain/Indicator: TA1537, Metabolic Activation: HAMSTER, LIVER, S-9, AROCLOR 1254 (10%), Method: PREINCUBATION inactive; negative | Test System: AMES SALMONELLA TYPHIMURIUM, Strain/Indicator: TA1537, Metabolic Activation: NONE, Method: PREINCUBATION inactive; negative | Test System: AMES SALMONELLA TYPHIMURIUM, Strain/Indicator: TA1537, Metabolic Activation: RAT, LIVER, S-9, AROCLOR 1254 (10%), Method: PREINCUBATION inactive; negative

CC(=O)C=O
inactive: Test System: AMES SALMONELLA TYPHIMURIUM, Strain/Indicator: TA98, Metabolic Activation: RAT, LIVER, S-9, AROCLOR 1254, Method: PREINCUBATION inactive; negative
active: [3] active; positive | [4] active; positive | [5] active; positive | Test System: AMES SALMONELLA TYPHIMURIUM, Strain/Indicator: TA100, Metabolic Activation: RAT, LIVER, S-9, AROCLOR 1254, Method: PREINCUBATION active; positive | Test System: AMES SALMONELLA TYPHIMURIUM, Strain/Indicator: TA102, Metabolic Activation: NONE, Method: PREINCUBATION active; positive | Test System: AMES SALMONELLA TYPHIMURIUM, Strain/Indicator: TA102, Metabolic Activation: RAT, LIVER, S-9, AROCLOR 1254, Method: PREINCUBATION active; positive | Test System: AMES SALMONELLA TYPHIMURIUM, Strain/Indicator: TA102, Metabolic Activation: RAT, LIVER, S-9, PHENOBARBITAL AND BETA-NAPHTHOFLAVONE, Method: PREINCUBATION active; positive | Test System: AMES SALMONELLA TYPHIMURIUM, Strain/Indicator: TA104, Metabolic Activation: NONE, Method: PREINCUBATION active; positive | Test System: AMES SALMONELLA TYPHIMURIUM, Strain/Indicator: TA104, Metabolic Activation: RAT, LIVER, S-9, PHENOBARBITAL AND BETA-NAPHTHOFLAVONE, Method: PREINCUBATION active; positive | Test System: AMES SALMONELLA TYPHIMURIUM, Strain/Indicator: TA2638, Metabolic Activation: NONE, Method: PREINCUBATION active; positive | Test System: AMES SALMONELLA TYPHIMURIUM, Strain/Indicator: TA2659, Metabolic Activation: NONE, Method: PREINCUBATION active; positive | Test System: CHINESE HAMSTER V-79, Strain/Indicator: V-79/6-THIOGUANINE, Metabolic Activation: NONE, Method: PREINCUBATION active; positive | Test System: CHINESE HAMSTER V-79, Strain/Indicator: V-79/6-THIOGUANINE, Metabolic Activation: RAT HEPATOCYTES, Method: PREINCUBATION active; positive

N[C@@H](Cc1ccccc1)C(=O)O
inactive: Test System: AMES SALMONELLA TYPHIMURIUM, Strain/Indicator: TA98, Metabolic Activation: NONE, Method: STANDARD PLATE inactive; negative | [1] inactive; negative | [5] inactive; negative | [2] inactive; negative
